Measured values published in US20140221286A1, “SODIUM CHANNEL BLOCKERS REDUCE GLUCAGON SECRETION” (Gilead Sciences, Inc., priority 2011, published 2014).

Legend:
α-TC1 clone 9 cells = type: cell-based; conditions: for Glucagon Secretion % Inhibition: veratridine-induced (30 μM for 1 hour), at a given concentration (not given)
Protocol: Voltage-dependent block (VDB) of […] was determined by whole-cell voltage-clamp recordings of sodium current using a QPatch 16× automated electrophysiological system in HEK 293 cells overexpressing Nav 1.3 and Nav 1.7 sodium channels, respectively. VDB of peak current was measured using an 8 s conditioning prepulse (to -55 mV for NaV1.3 and to −60 mV for […]) followed by a test pulse (0 mV, 20 ms). Currents are normalized to the peak current recorded in the absence of drug and expressed as percent inhibition. […] Glucagon secretion in the cells was induced by the treatment with veratridine at 30 μM for 1 hour in Krebs-Ringer buffer containing 0.1% BSA. Percent inhibition of glucagon secretion by Na channel blockers was calculated from the reduction of veratridine-induced glucagon secretion in the absence of drug.
Cells were seeded at 0.4×10^5/well in 96-well plates and allowed to recover for 1 day. The media was then changed to serum-free DMEM and incubated overnight. Cells were then treated with sodium-channel blockers in the presence of veratridine (15 μM) in Krebs-Ringer buffer containing 0.1% BSA and 3 mM glucose for 1 h. Supernatants were collected and stored at −80° C. until analysis. Glucagon levels were measured by an ELISA kit.

rat pancreatic islets = assay: Epinephrine-induced glucagon secretion in rat pancreatic islets; type: cell-based; conditions: epinephrine 5 μM; at 30 μM
[1] = tested on: STZ-induced diabetic mice; assay: STZ-induced diabetic mouse, animal model of type 1 diabetes; type: in vivo
Protocol: Streptozotocin (STZ) induces diabetes by selectively destroying the pancreatic β-cells. Five-week old male C57BL/6J mice were injected with STZ (40 mg/kg, i.p., dissolved in cold 0.025 mol/L sodium citrate-buffered solution at pH 4.5, freshly made right before injection) for 5 consecutive days to induce diabetes. Fasting plasma glucose (FPG) levels were determined 2 days after STZ treatment. Diabetic mice were then divided into STZ+vehicle and STZ+ranolazine group (10 mice/group) based on body weight (BW) and blood glucose levels. Age and gender matched non-diabetic mice were used as “normal” controls (n=3). For the following 8 weeks, mice were given either vehicle or ranolazine (20 mg/kg in water, p.o., twice daily). BW and FPG levels were monitored once a week. HbA1c levels were measured using a DCA 2000+ clinical analyzer (Siemens) at 0, 4 and 8 weeks of treatment. At the end of the treatment, pancreases from all groups were collected, fixed in 10% formalin overnight and then embedded in paraffin. HE staining and fluorescent staining were performed to review the islet morphology in all groups.

[2] = after 8 weeks treatment, fluorescence staining

Compound | reduction of veratridine-induced increase of glucagon secretion (α-TC1 clone 9 cells; veratridine 15 μM, at 3 μM) [%] | Glucagon Secretion % Inhibition (α-TC1 clone 9 cells) [%] | reduction of epinephrine-induced increase of glucagon secretion (rat pancreatic islets) [%] | fasting plasma glucose (FPG) ([1]; 20 mg/kg p.o. twice daily, week 4) [mg/dL] | fasting plasma glucose (FPG) ([1]; 20 mg/kg p.o. twice daily, week 6 to week 8) [mg/dL] | HbA1c ([1]; 20 mg/kg p.o. twice daily, week 8) [%] | insulin-positive area per islet [1, 2] [%] | percentage of total islet (insulin and glucagon) area [1, 2] [%]
FC(F)(F)Oc1ccc(-c2ccc3nnc(C(F)(F)F)n3c2)cc1 [Compound A, 6-(4-(trifluoromethoxy)phenyl)-3-(trifluoromethyl)-[1,2,4]triazolo[4,3-α]pyridine] | 70±4 | 74.17 |  |  |  |  |  | 
COc1ccccc1OCC(O)CN1CCN(CC(=O)Nc2c(C)cccc2C)CC1 (racemic) [Ranolazine, ±-N-(2,6-dimethylphenyl)-4-[2-hydroxy-3-(2-methoxyphenoxy)-propyl]-1-piperazineacetamide] |  | 29.99 | 44±8 | 264 ± 30 | 188 ± 20 | 4.6±0.2 | 69±2.4 | 0.30±0.03
